In patent US5821222A, “Cyclic depsipeptides having 18 ring atoms for combating endoparasites” (Bayer Aktiengesellschaft, priority 1992, dated 1998):

Legend:
[1] = system: Trichinella spiralis; experiment: Trichinella spiralis in vitro; assay type: cell-based; conditions: Trichina larvae from mouse muscle, incubation 5 days at 19° C.; tested at 100, 10 and 1 μm/ml
Procedure: Trichinella spiralis in vitro
(§1) Trichina lavae are isolated from mice's muscle and washed in 0.9% NaCl supplemented with 20 μg/ml sisomycin and 2 μg/ml clotrimazole. The actual incubation of approximately 20 trichinae per measurement is carried out in 2 ml of a solution composed of 10 g of Bacto Casitone, 5 g of yeast (yeast extract), 2.5 g of glucose, 0.4 g of KH2 PO4 and 0.4 g of K2 HPO4 per 500 ml, pH 7.2, containing 10 μm/ml of sisomycin and 1 μm/ml of clotrimazole. 10 mg of the substance to be tested are dissolved in 0.5 ml of DMSO, and such an amount is added to the incubation medium that the end concentration is 100, 10 and 1 μm/ml. The experiment is evaluated after incubation for 5 days at 19° C.

[2] = system: Heterakis spumose; experiment: Heterakis spumose in vitro test (mobility and egg excretion); assay type: cell-based; conditions: 10 female nematodes, incubation 3 days at 37° C.
Procedure: as §1
Female Heterakis spumose nematodes are isolated from the colon and caecum of mice. 10 females are incubated for 3 days at 37° C. in 1.5 ml of medium used for the Trichinella spiarlis in-vitro test. The addition of test substances is likewise carried out as described for the trichina test. To test the anthelmintic activity, mobility and egg excretion are assessed in comparison with the control. Enniatins A1, B and B1 are active at a concentration of 10 μM/ml.

[3] = system: Haemonchus contortus; experiment: In vivo nematode test Haemonchus contortus/sheep; conditions: experimentally infected sheep, oral and/or intravenous; egg excretion stopped completely after treatment
Procedure: Haemonchus contortus/sheep
Shaft which have been infected experimentally with Haemonchus contortus were treated after the prepatent time of the parasite had elapsed. The active compounds were applied orally and/or intravenously in the form of the pure active compound.
The degree of effectiveness is determined by quantitatively counting the worm eggs excreted with the faeces before and after the treatment.
If the egg excretion has stopped completely after the treatment, this means that the worms were aborted or are damaged to such an extent that they no longer produce eggs (dosis effectiva).
Active compounds tested and effective dosage rates (dosis effectiva) can be seen from the table which follows: […]

SMILES | effective concentration [1] | active concentration (mobility and egg excretion compared with control) [2] | Dosis effectiva [3]
CC[C@H](C)[C@H]1C(=O)O[C@H](C(C)C)C(=O)N(C)[C@@H]([C@@H](C)CC)C(=O)O[C@H](C(C)C)C(=O)N(C)[C@@H](C(C)C)C(=O)O[C@H](C(C)C)C(=O)N1C [Enniatin A1, enniatin A1] | 100 μm/ml | 10 μM/ml | 
CC[C@H](C)[C@H]1C(=O)O[C@H](C(C)C)C(=O)N(C)[C@@H](C(C)C)C(=O)O[C@H](C(C)C)C(=O)N(C)[C@@H](C(C)C)C(=O)O[C@H](C(C)C)C(=O)N1C [Enniatin B1, enniatin B1] | 100 μm/ml | 10 μM/ml | 
CC(C)[C@H]1C(=O)O[C@H](C(C)C)C(=O)N(C)[C@@H](C(C)C)C(=O)O[C@H](C(C)C)C(=O)N(C)[C@@H](C(C)C)C(=O)O[C@H](C(C)C)C(=O)N1C [Enniatin B, enniatin B] | 100 μm/ml | 10 μM/ml | 
CC[C@H](C)[C@H]1C(=O)O[C@H](C)C(=O)N(C)[C@@H]([C@@H](C)CC)C(=O)O[C@H](C)C(=O)N(C)[C@@H]([C@@H](C)CC)C(=O)O[C@H](C)C(=O)N1C [Example 1, Cyclo(N-methyl-L-isoleucyl-D-lactyl-N-methyl-L-isoleucyl-D-lactyl-N-methyl- L-isoleucyl-D-lactyl-)] |  |  | 5 mg/kg
